Source: US12649712B2, “Indene compounds, pharmaceutical compositions thereof, and their therapeutic applications” (NucMito Pharmaceuticals Co. Ltd., priority 2020, dated 2026)

Experiments:
[1] = system: alpha-smooth muscle actin (α-SMA); test: Inhibition of TGF-β induced expression of alpha-smooth muscle actin (α-SMA) in CFSC cells, western blot; assay type: cell-based; conditions: compound at 10 μM, TGF-β (10 ng/mL), 24 hours, decrease in band intensity vs TGF-β only
Outline: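 Cells at 60–70% confluence in serum-free DMEM received compound at 10 μM plus TGF-β (10 ng/mL) for 24 h at 37 °C. NP-40 lysates were run on western blot for α-SMA and β-actin, with ECL bands quantified. % inhibition = decrease in band intensity versus TGF-β alone.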

[2] = system: CCl4-induced liver fibrosis in C57BL/6 mice; test: Antifibrotic activity in CCl4-induced liver fibrosis, Sirius red staining of liver samples; assay type: in vivo; conditions: C57/BL6 mice, oral once daily for 2 weeks; malotilate 60 mg/kg, A11 and B9 50 mg/kg
Experimental: CCl4-induced liver fibrosis was described previously. Henderson et al., Proc. Nat'l. Acad. Sci. U.S.A. 2006, 103, 5060-5; Henderson et al., Nat. Med. 2013, 19, 1617-24. Briefly, eight-week-old C57BL/6 mice were randomly divided into two groups: a control group and a CCl4 administered group. Liver fibrosis was induced by intraperitoneal administration of 25% CCl4 at 0.5 mL/kg body weight (diluted in corn oil) twice weekly for 6 weeks. Dosing was started during the last 2 weeks of CCl4 administration. Malotilate (Mal) as a reference and compounds A11, A23, and B9 were each freshly prepared by dissolving in PEG 400 and orally administered in a dosing volume of 10 mL/kg. The mice were stratified (n=6-8 per group) based on their body weights and dosed once daily for 2 weeks with a vehicle, malotilate (60 mg/kg), compound A11 (50 mg/kg), compound A23 (50 mg/kg), or compound B9 (50 mg/kg). Their body weights were monitored daily during the intervention period. At the terminal of treatment, the mice were sacrificed and their liver samples were processed as below.
The mice liver samples were all taken at the same position of each large lobe, and then post-fixed in a 10% buffered formaldehyde for 48 h. The fixed livers were embedded in paraffin for microtome slicing into 5-μm-thick sections. The tissue sections were mounted onto MS-coated glass slides, deparaffinized, and stained with picric acid-Sirius red. Stained sections were photographed using a microscope with a digital camera. Images were taken at a full resolution with a single image dimension set at 1,360×1,024 pixels.
Total RNA was extracted from the liver using an MOLPURE® TRIEASY™ Plus Total RNA Kit (Yeasen, Shanghai, China). Total RNA (5 μg) was reverse-transcribed using 1st strand cDNA Synthesis SuperMix for qPCR (gDNA digester plus) Kit (Yeasen, Shanghai, China). […]

Compound	inhibition at 10 µM [1] [%]	Sirius red pathological staining of liver samples: effect on fibrosis induced by CCl4 [2]
CC1=C(CC(=O)O)c2cc(F)ccc2/C1=C\c1ccc(Oc2ccc(F)cc2)cc1 [Compound A11, 2-[(1Z)-5-Fluoro-1-{[4-(4-fluorophenoxy)phenyl]methylidene}-2-methyl-1H-inden-3-yl]acetic acid]	80 to 90	reversed the fibrosis induced by CCl4
CC1=C(CC(=O)O)c2cc(F)ccc2/C1=C\c1ccc(C(C)C)cc1 [Compound B9, (Z)-2-(5-fluoro-2-methyl-1-(4-isopropylbenzylidene)-1H-inden-3-yl)acetic acid]	> 90	reversed the fibrosis induced by CCl4
CC1=C(CC(=O)O)c2cc(F)ccc2/C1=C\c1cccc(Oc2cccc(C(F)(F)F)c2)c1 [Compound D27, 2-[(1Z)-5-Fluoro-2-methyl-1-({3-[3-trifluoromethylphenoxy]phenyl}-methylidene)-1H-inden-3-yl]acetic acid]	> 90	
CC1=C(CC(=O)O)c2cc(F)ccc2/C1=C/c1ccc(Oc2ccc(F)c(F)c2)cc1 [Compound E1, 2-[(1E)-5-Fluoro-2-methyl-1-({4-[3,4-difluorophenoxy]phenyl}methylidene)-1H-inden-3-yl]acetic acid]	> 90	
CC1=C(CC(=O)O)c2cc(F)ccc2/C1=C/c1ccc(Oc2ccc(F)cc2)cc1 [Compound E2, 2-[(1E)-5-Fluoro-2-methyl-1-({4-[4-fluorophenoxy]phenyl}methylidene)-1H-inden-3-yl]acetic acid]	> 90	
CC1=C(CC(=O)O)c2cc(F)ccc2/C1=C/c1ccc(Oc2ccccc2)cc1 [Compound E3, 2-[(1E)-5-Fluoro-2-methyl-1-[(4-phenoxyphenyl)methylidene]-1H-inden-3-yl]acetic acid]	> 90	
CC1=C(CC(=O)O)c2cc(F)cc(F)c2/C1=C/c1ccc(Oc2ccc(F)cc2)cc1 [Compound E4, 2-[(1E)-5,7-Difluoro-2-methyl-1-({4-[4-fluorophenoxy]phenyl}methylidene)-1H-inden-3-yl]acetic acid]	> 90	
CC1=C(CC(=O)O)c2cc(F)cc(F)c2/C1=C/c1cccc(Oc2ccccc2)c1 [Compound E6, 2-[(1E)-5,7-Difluoro-1-(3-(phenoxy)benzylidene)-2-methyl-1H-inden-3-yl]-acetic acid]	> 90	
CC(C)OC(=O)C(C(=O)OC(C)C)=C1SC=CS1 [Mal, malotilate, reference compound]		reversed the fibrosis induced by CCl4
